In ChEMBL document CHEMBL1201862, “PubChem BioAssay data set” (2004):
Where a name gives a salt, the structure may show the parent alone. Blank lines part the entries; values can stand above or below the compound they belong to. Activity calls are given as the source filed them.

Columns and labels:
Estrogen receptor beta = Estrogen receptor beta (Homo sapiens, UniProt Q92731);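 also: recombinant ER-beta bound to coactivator SRC1 peptide in presence of estradiol agonist; inhibitors block coactivator peptide binding and lower the FRET signal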
[1] = target: T1, Sentrin-specific protease 1 (Homo sapiens, UniProt Q9P0U3); assay: potency of human SENP1 inhibitors, dose response, biochemical, kinetic FRET (AID 651697); assay type: functional; conditions: read-out: IC50_Mean
T1 sequence (Q9P0U3 whole entry): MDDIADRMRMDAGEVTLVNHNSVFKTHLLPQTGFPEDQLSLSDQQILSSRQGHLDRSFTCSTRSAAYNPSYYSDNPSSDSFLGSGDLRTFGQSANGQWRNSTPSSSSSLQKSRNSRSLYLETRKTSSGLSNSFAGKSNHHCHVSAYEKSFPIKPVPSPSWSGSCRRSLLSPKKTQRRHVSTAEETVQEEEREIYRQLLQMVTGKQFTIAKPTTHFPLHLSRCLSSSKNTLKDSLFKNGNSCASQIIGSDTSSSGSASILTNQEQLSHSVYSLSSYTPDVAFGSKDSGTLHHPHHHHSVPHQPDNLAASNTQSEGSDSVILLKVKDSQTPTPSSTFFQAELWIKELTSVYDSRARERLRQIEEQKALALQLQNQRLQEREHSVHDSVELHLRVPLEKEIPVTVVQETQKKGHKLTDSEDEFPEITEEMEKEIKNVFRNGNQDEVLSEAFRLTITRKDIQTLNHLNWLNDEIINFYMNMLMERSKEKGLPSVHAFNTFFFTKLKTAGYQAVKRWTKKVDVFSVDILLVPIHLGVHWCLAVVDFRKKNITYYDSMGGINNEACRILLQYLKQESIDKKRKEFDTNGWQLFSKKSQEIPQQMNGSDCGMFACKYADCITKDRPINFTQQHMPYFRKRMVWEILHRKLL

[2] = HEp-2 cell cytotoxicity, dose response, cytotoxicity control for RSV inhibitor project, HTS (AID 2410); assay type: functional; conditions: human respiratory syncytial virus
Protein Rev = Protein Rev (Human immunodeficiency virus type 1 group M subtype B (isolate HXB2)(HIV-1), UniProt P04618); assay: inhibitors of Rev binding to RRE RNA, dose response, biochemical, fluorescence polarization, HIV-1 (AID 434976); parameters: species or system Human immunodeficiency virus 1
[3] = target: T1, Sentrin-specific protease 1; assay: Dose response confirmation of small molecule inhibitors of the catalytic domain of the SUMO protease, SENP1 in a FRET assay.; assay type: functional; conditions: read-out: IC50_Mean
[4] = target: Female germline-specific tumor suppressor gld-1 (Caenorhabditis elegans, UniProt Q17339); assay: inhibitors of GLD-1 binding to TGE RNA, dose response, biochemical, fluorescence polarization, C. elegans (AID 2802);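 also: fluorescence polarization of labeled TGE RNA bound by purified gld-1 protein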
H9c2 = assay: cells; assay type: functional, cell-based; conditions: Rattus norvegicus, H9c2, Myocardium;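 also: confirmatory concentration-response retest of ultra-high-throughput screening hits for modulation of myocardial damage; cell death induced by hydrogen peroxide oxidative stress; compound pretreatment for 60 min then peroxide exposure for 2 h; potency is for protecting the cells against peroxide damage rather than for killing them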
[5] = target: Potassium voltage-gated channel subfamily KQT member 2 (Rattus norvegicus, UniProt O88943); assay: retigabine-insensitive KCNQ2 potentiators, concentration-response, dose response, cell-based, retigabine-insensitive compounds (AID 2654); assay type: functional
[6] = target: T2, RNA-binding protein pos-1 (Caenorhabditis elegans, UniProt G5EF15); assay: inhibitors of POS-1/mex-3 RNA binding, dose response, biochemical, fluorescence polarization (AID 1964);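 also: purified POS-1 fused to maltose binding protein made in E. coli; potency of compounds blocking POS-1 binding to fluorescent RNA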
T2 sequence (G5EF15 whole entry): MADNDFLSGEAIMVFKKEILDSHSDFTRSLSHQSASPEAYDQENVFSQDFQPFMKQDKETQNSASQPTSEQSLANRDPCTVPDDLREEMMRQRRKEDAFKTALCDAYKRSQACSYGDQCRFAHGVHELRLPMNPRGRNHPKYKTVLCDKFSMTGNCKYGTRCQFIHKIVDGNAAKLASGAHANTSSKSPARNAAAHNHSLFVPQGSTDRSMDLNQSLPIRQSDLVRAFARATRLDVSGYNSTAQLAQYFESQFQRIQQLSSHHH

[7] = target: T3, Zinc finger protein mex-5 (Caenorhabditis elegans, UniProt Q9XUB2); assay: MEX-5/TCR-2 RNA interaction inhibitors, dose response, biochemical, C. elegans, fluorescence polarization (AID 1960)
T3 sequence (Q9XUB2 whole entry): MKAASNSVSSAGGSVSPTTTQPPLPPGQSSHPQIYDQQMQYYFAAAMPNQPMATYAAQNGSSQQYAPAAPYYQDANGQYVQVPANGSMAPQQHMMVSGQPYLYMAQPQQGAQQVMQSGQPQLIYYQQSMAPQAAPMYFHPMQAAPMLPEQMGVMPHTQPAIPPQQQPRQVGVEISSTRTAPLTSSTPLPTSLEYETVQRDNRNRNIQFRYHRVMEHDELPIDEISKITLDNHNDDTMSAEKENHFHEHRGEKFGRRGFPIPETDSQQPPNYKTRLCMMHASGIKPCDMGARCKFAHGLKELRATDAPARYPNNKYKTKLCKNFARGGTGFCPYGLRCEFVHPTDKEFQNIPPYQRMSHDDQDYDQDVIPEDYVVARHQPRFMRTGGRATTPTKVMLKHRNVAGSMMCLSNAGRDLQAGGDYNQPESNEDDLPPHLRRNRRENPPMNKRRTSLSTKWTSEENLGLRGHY

[8] = target: T4, Polyadenylate-binding protein 1 (Homo sapiens, UniProt P11940); assay: PABP1 MLLE–PAM2 interaction inhibitors, dose response, miRNA deadenylation inhibitor project, biochemical, fluorescence polarization, Cy5-PAM2 peptide, secondary (AID 602260); assay type: functional; conditions: read-out: IC50_Mean
SUMO-activating enzyme [9] = target: T5, SUMO-activating enzyme (Homo sapiens, UniProt Q9UBT2); assay: inhibitors of in vitro SUMOylation cascade, primary screen, biochemical, HTRF, uHTS (AID 2006); assay type: protein-complex assay
[10] = target: T6, Intestinal-type alkaline phosphatase (Homo sapiens, UniProt P09923); assay: human IAP activators, dose response, biochemical, luminescent, uHTS hits, set 2 (AID 488817); assay type: functional;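 also: potency of activators that raise enzyme activity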
[11] = target: T7, Alkaline phosphatase, tissue-nonspecific isozyme (Homo sapiens, UniProt P05186); assay: TNAP enzyme activators, dose response, selectivity assay for human IAP activator project, biochemical, TNAP isozyme, human IAP uHTS hits (AID 488886); assay type: functional;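 also: potency of compounds raising TNAP activity as a selectivity check on IAP activators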
T7 sequence (P05186 whole entry): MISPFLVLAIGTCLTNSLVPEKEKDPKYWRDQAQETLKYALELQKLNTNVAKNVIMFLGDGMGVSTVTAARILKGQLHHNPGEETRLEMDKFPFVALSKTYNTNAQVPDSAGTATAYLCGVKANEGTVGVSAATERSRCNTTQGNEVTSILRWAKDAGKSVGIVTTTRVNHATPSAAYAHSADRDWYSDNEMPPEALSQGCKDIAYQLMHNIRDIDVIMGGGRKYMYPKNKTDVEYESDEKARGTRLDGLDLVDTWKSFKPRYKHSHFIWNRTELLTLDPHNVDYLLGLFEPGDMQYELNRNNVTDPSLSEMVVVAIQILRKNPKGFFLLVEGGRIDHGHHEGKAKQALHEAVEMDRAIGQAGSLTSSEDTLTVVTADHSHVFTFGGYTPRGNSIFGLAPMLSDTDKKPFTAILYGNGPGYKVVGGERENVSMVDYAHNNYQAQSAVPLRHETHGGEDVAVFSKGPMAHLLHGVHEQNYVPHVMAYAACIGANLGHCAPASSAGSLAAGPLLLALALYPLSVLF

[12] = target: T6, Intestinal-type alkaline phosphatase; assay: human intestinal alkaline phosphatase activators, dose response, biochemical, luminescence, uHTS hits (AID 463120); assay type: functional
[13] = target: T4, Polyadenylate-binding protein 1; assay: PABP1 MLLE–PAM2 binding inhibitor potency, dose response, biochemical, fluorescence polarization, FITC-PAM2 peptide (AID 602259); assay type: functional; conditions: read-out: IC50_Mean
[14] = AlphaScreen signal interference compounds, dose response, artefact control for ARNT-TACC3 interaction inhibitor project, biochemical, luminescence, cherry-pick (AID 651705); assay type: functional;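 also: AlphaScreen bead proximity signal that flags compounds interfering with the detection technology; potency reflects signal decrease which marks the compound as an assay artifact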
[15] = target: Intestinal-type alkaline phosphatase (Mus musculus, UniProt P24822); assay: PubChem AID 488874; assay type: functional
SUMO-activating enzyme [16] = target: T5, SUMO-activating enzyme; assay: SUMOylation inhibitor hit validation, confirmation, SUMOylation inhibitor project, biochemical, AlphaScreen (AID 2018); assay type: functional

T4 sequence (P11940 whole entry): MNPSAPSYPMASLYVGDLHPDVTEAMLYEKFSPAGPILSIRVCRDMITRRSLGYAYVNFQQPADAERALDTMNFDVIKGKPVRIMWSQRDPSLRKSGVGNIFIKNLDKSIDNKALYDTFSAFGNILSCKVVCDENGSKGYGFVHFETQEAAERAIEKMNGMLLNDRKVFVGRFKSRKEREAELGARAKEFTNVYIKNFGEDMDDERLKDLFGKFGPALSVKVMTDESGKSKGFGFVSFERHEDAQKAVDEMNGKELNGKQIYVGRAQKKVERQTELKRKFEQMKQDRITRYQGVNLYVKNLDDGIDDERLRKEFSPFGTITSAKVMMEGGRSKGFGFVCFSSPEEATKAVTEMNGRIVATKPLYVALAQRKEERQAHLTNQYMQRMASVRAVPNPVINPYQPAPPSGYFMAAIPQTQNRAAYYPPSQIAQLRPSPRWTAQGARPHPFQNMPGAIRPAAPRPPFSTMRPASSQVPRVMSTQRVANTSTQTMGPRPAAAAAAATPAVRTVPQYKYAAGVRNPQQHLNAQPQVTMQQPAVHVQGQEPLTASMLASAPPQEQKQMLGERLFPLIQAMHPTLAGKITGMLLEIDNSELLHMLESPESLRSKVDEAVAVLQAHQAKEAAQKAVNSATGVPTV
T6 sequence (P09923 whole entry): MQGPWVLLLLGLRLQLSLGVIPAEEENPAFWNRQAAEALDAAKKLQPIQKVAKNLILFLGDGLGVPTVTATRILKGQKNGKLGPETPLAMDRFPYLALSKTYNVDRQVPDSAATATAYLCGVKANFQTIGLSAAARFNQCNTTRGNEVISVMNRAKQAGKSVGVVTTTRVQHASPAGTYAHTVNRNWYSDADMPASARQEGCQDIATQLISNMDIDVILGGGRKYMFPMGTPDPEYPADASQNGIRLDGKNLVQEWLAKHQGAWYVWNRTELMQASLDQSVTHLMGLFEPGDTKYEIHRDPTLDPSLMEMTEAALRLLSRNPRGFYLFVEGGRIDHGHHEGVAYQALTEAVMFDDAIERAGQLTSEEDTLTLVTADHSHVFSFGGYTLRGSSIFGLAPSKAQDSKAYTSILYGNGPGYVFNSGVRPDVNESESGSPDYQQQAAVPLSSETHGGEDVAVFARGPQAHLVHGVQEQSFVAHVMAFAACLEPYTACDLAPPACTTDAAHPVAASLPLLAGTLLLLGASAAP
T5 sequence (Q9UBE0 whole entry): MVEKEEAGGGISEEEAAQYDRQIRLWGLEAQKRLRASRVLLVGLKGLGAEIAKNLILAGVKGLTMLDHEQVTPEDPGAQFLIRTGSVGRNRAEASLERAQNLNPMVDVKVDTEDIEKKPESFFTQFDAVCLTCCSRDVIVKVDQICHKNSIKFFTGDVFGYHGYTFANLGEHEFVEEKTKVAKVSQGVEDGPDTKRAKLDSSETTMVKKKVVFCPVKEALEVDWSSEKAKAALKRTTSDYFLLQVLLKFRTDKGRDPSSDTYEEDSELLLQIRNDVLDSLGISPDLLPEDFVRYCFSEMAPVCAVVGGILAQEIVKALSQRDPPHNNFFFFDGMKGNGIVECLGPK
T5 sequence (Q9UBT2 whole entry): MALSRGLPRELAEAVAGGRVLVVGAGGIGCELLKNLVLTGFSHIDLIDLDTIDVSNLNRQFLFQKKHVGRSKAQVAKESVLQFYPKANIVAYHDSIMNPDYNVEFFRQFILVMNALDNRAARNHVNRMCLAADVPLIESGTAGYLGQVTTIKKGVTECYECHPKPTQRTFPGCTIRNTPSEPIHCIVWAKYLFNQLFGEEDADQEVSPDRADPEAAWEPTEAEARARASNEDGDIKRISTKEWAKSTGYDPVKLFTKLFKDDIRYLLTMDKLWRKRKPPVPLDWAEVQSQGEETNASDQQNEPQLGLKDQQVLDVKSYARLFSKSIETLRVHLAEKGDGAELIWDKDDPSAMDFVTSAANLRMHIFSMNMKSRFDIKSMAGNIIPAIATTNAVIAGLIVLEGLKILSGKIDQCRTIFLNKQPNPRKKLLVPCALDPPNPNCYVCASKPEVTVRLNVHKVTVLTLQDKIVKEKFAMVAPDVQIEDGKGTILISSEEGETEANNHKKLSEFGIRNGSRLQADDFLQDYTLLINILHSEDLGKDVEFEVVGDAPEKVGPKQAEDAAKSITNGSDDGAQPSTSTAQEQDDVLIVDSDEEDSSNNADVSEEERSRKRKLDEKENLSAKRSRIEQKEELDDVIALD
Sequence of Estrogen receptor beta (Q92731 whole entry): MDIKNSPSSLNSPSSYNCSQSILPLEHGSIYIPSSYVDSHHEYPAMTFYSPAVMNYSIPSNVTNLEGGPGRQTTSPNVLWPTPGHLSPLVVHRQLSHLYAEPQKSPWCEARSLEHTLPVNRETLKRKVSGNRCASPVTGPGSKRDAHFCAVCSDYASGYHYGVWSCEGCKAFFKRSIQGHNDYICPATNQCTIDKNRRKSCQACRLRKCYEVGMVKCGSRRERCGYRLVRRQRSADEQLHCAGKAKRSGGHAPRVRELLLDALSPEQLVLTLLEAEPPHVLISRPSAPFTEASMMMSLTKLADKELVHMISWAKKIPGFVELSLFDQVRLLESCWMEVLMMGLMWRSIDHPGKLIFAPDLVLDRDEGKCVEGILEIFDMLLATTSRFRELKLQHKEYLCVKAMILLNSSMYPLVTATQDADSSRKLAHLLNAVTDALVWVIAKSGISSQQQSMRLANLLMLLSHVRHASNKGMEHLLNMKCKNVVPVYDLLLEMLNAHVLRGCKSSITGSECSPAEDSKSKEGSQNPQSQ
Sequence of Protein Rev (P04618 whole entry, the tested form may be a part): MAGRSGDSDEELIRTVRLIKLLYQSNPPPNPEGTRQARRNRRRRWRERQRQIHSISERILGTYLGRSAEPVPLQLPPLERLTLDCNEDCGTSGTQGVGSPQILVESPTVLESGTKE
Sequence of Potassium voltage-gated channel subfamily KQT member 2 (O88943 whole entry, the tested form may be a part): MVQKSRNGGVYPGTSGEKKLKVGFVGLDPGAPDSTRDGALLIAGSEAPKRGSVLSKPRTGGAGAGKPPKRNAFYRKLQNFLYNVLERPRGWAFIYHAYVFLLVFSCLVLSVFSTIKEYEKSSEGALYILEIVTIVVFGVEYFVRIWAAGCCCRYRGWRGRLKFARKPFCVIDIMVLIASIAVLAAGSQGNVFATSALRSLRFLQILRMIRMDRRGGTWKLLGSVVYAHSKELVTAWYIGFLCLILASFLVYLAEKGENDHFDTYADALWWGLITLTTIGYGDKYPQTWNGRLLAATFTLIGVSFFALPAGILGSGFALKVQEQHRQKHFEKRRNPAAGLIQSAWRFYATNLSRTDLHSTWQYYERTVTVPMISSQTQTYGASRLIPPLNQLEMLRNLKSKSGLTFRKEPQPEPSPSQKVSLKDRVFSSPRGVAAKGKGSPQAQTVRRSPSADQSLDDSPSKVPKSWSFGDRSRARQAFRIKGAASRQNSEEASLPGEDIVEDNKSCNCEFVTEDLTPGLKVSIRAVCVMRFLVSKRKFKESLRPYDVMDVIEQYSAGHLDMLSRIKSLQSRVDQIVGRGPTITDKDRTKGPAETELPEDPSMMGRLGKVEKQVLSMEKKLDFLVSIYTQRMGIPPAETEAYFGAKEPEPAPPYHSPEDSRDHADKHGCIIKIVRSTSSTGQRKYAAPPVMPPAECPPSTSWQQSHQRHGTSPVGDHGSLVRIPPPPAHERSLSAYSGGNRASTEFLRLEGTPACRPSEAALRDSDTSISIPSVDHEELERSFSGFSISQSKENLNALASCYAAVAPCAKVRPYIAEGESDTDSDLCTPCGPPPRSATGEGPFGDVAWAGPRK
Sequence of Intestinal-type alkaline phosphatase (Mus musculus, UniProt P24822) (P24822 whole entry): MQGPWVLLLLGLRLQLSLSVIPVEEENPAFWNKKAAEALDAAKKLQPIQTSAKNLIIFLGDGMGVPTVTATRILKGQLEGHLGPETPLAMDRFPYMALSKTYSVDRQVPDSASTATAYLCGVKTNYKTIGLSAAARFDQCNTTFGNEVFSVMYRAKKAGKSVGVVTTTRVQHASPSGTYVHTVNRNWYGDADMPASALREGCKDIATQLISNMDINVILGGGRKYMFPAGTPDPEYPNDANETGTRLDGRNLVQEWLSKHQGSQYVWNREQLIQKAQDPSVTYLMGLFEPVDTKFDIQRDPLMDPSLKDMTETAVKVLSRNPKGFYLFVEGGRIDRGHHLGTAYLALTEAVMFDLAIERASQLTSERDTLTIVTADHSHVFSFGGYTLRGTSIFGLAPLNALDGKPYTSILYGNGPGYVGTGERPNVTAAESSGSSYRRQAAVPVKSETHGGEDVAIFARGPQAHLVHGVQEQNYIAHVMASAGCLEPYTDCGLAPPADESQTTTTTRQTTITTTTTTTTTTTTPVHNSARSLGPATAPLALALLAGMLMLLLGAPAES
Sequence of Female germline-specific tumor suppressor gld-1 (Q17339 whole entry): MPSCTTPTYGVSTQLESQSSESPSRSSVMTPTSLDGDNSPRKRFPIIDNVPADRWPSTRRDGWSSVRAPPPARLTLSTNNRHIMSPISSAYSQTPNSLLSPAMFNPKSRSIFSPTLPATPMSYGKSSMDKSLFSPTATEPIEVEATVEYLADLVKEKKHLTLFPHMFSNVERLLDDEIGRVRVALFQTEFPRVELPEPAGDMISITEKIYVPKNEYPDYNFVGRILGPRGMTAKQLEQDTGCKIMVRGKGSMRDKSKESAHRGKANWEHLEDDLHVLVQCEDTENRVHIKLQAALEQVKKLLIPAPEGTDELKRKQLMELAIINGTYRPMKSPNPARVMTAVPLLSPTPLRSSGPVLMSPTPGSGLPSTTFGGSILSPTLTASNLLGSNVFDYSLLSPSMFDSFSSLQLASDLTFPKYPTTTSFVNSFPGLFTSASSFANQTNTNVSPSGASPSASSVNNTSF

SMILES: COc1ccc(Nc2nnc(SCc3cc(=O)n4ccsc4n3)s2)cc1
IC50 (Estrogen receptor beta): > 50 µM (not active)
IC50 [1]: 26.2 µM (inactive)
CC50 [2]: 36.5 µM (active)
IC50 (Protein Rev): > 75.4 µM (not active)
IC50 [3]: 16.3 µM (active)
IC50 [4]: 45.5 µM (inactive)
IC50 (H9c2): 7.45 µM (active)

EC50 [5]: 16.8 µM (active)
SMILES: Cc1cccc(NC(=O)Nc2cccnc2)c1

EC50 [6]: 37.5 µM (active)
EC50 [7]: 0.112 µM (active)
IC50 [8]: > 66 µM (inactive)
IC50 (SUMO-activating enzyme [9]): 23.2 µM (active)
EC50 [10]: 8.88 µM (active)
EC50 [11]: > 100 µM (inactive)
EC50 [12]: 5.47 µM (active)
IC50 [13]: 45 µM (inactive)
IC50 [15]: 50.9 µM (active)
IC50 (SUMO-activating enzyme [16]): 1.66 µM (active)
SMILES: NC(CO)C(=O)NNCc1ccc(O)c(O)c1O (centres undefined) [BENSERAZIDE HYDROCHLORIDE]
AC50 [14]: 96.7 µM (active)
